From patent EP0705258B1, “AZOLYL-CYCLIC AMINE DERIVATIVES WITH IMMUNOMODULATORY ACTIVITY” (Knoll AG, priority 1993, dated 1995)

What was measured:
[1] = tested on: tumour necrosis factor-α (TNF-α); test: Mouse Tumour Necrosis Factor Test (Test B), mouse endotoxin shock model, serum TNF-α by ELISA; assay type: in vivo, BALB/c mice; details: Mus musculus; minimum effective oral dose giving significant reduction in serum TNF-α of ≥35%; dosed 2 h before LPS i.p.; ≤ = active at dose given but not tested at lower doses; read-out: MTNF:MED
From the text: Preferred compounds of the present invention are active in an in-vivo test which determines the ability of the compounds to inhibit the release of tumour necrosis factor-α (TNF-α) in a mouse endotoxin shock model (Test B). This model is similar to that described by Zuckerman and Bendele (1989), Infection and Immunity 57 (10): p3009-3013.
Each compound of formula I was combined with a carrier of a solution of 1.5% v/v sorbitan esters under the trade name Tween 80 and 0.25% v/v cellosize in sterile water (100 µl) and was administered orally to a group of four BALB/c mice. The concentration of compound was such as to provide dosages selected from 100, 30, 10, 3, 1, 0.1 and 0.03 mg/kg. Two hours after such oral administration, lipopolysaccharide (LPS) (E. coli 0127:B8) (100 µg) in sterile water (0.2 ml) was administered intraperitoneally to the test mice.
A control group of eight BALB/c mice was treated in a similar manner as the test group except that no test compound was included with the carrier.
One hour after LPS administration the mice were killed and blood was collected by cardiac puncture. The blood was incubated at 20°C for 2 hours and the serum was separated from the clotted blood following centrifugation. Serum tumour necrosis factor-α (TNF-α) levels were assayed by an enzyme-linked immunosorbent assay (ELISA) and the concentration of TNF-α in each of the drug-treated groups was compared with the control group by one-way analysis of variance followed by a multiple t-test.
The ELISA was carried out by coating a 96-well vinyl assay plate (Costar) overnight at 4°C with 50 µl per well of 2 µg/ml hamster anti-mouse TNF monoclonal antibody in 0.1M sodium hydrogen carbonate buffer at pH 8.2. After washing the plate with phosphate buffered saline (PBS) containing 0.05% v/v sorbitan esters under the trade name Tween 20 (wash buffer), a blocking/dilution buffer (10% sheep serum in PBS containing 0.1% v/v sorbitan esters under the trade name Tween 20 (200 µl)) was aliquoted to each well and incubated at 37°C for 0.5 hours. After aspirating the blocking buffer, the serum samples and pure TNF (as a standard) diluted in blocking/dilution buffer, were added to the wells and incubated at 37°C for 2 hours. After washing with the wash buffer, a polyclonal rabbit anti-mouse TNF-α antibody in blocking/dilution buffer (100 µl of a 1 in 10,000 dilution) was added and incubated for a further 1.5 hours at 37°C. After further washes, anti-rabbit IgG peroxidase conjugate (100 µl of a 1 in 4000 dilution) was added and incubated at 37°C for 0.5 hours. After further washing, the substrate solution (100 µl per well of 0.1 mg/ml 3,3', 5,5'-tetramethylbenzidine dihydrochloride in 0.1M phosphate citrate buffer, pH 5.0, to which 2 µl of 30% hydrogen peroxide per 10 ml was added just before use) was added and the colour allowed to develop. The reaction was stopped by the addition of 1M sulphuric acid (25 µl) and the optical density read in a multichannel spectrophotometer at 450 nm. The mean TNF-α concentration was determined by comparison with the standard curve and the mean TNF-α concentration for each group compared with that produced by the control group. Drug treatments which cause a statistically significant reduction in TNF-α concentration of ≥35% at a single dose at 100 mg/kg or less were considered active.

[2] = tested on: Zymosan Stimulated Macrophages; test: Inhibition of Arachidonic Acid Release from Zymosan Stimulated Macrophages (Test D); assay type: cell-based, MF1 mice; details: Mus musculus, Macrophage, tested at 100, 50, 20, 10, 5 and 1 µM
Procedure: Female MF1 mice (weighing 20 to 25 g) were killed using a rising concentration of CO2. The mice were laid on their backs and the abdomens wiped with 70% alcohol. The skin was pulled back, exposing the peritoneal wall. Medium A (5 ml) (see below) was injected into the peritoneal cavity of each mouse followed by approximately 1 ml of air using a 20 ml syringe and a 21G x 40 mm needle in order to form a suspension of macrophage cells. The medium and cells were then removed using a 19G x 40 mm needle. The resulting suspension was returned to a sterile beaker kept on ice. The extracts from all the mice were pooled and this pooled cell suspension was counted using a Coulter counter and adjusted to a final cell count of 1 - 1.3 x 10^6 cells/ml prior to labelling with [^3H]-arachidonic acid. Typically five mice provided sufficient cells for each multiwell plate. Sufficient [^3H]arachidonic acid in ethanol to give a final concentration of 1.6 µCi/ml (equivalent to 40 µCi/plate) was blown to dryness under nitrogen. The arachidonic acid was then resuspended in 1 or 2 ml of the cell suspension which was then mixed with the remainder of the cell suspension in a centrifuge bottle. The labelled cell suspension was then plated out into sterile plastic 96 flat-bottomed well plates (250 µl per well) and incubated overnight at 37°C in a moist atmosphere of 5% CO2, 95% air. The following day, non-adherent cells were removed by washing 3 times with sterile phosphate buffered saline (PBS). The adherent peritoneal macrophages were then cultured for a further 24 hours in the presence or absence of drugs, in medium B (see below) at 37° in a 5% CO2 atmosphere in order to measure the effects of drugs on the spontaneous release of arachidonic acid in the absence of stimulus. After this incubation, supernatants were removed to give media 1 and stored in sealed multi-well plates at 4°C prior to scintillation counting. Drugs which potentiated spontaneous release of arachidonic acid (125% of controls) were deemed to be toxic at the concentration at which this phenomenon occurred. The supernatants were replaced by fresh medium C containing fresh drug and a stimulus. Three drugs were tested at six concentrations (100, 50, 20, 10, 5 and 1 µM) in replicates of four on each plate. The other wells contained controls consisting of a positive control (e.g. dexamethasone), medium (B) only and medium C only. Incubation was then continued for a further 5 hours, whereupon the supernatants were collected to give media 2 and the adherent cells washed with PBS. The cells were then lysed with 100 µl of 0.1% TRITON® X100 in a 0.1% solution of bovine serum albumin in 0.9% saline and mechanically disrupted to give cell lysates. These supernatants (media 2) and cell lysates (Cells) were also stored in sealed multi-well plates at 4°C prior to scintillation counting. 200 µl aliquots of media, or 100 µl aliquots of cells were counted using 2 ml of OPTIPHASE "HIGH SAFE" (Trademark of LKB) as scintillant. […] The value for the arachidonic acid release in the absence of stimulus (spontaneous, cpm of media 2) from cells which had been exposed to neither stimulus nor drug was subtracted from all equivalent values (cpm media 2, stimulated with or without drug) to give the net stimulated release. The percentage inhibition of arachidonic acid release caused by a drug may then be calculated using the following equation. % Inhibition = 100 -(net stimulated release in presence of drug x 100)/(net stimulated release in absence of drug) [formula] […] The zymosan stimulant was prepared as follows:- zymosan (200mg) (supplied by Sigma) was added to PBS (20ml). The mixture was boiled for 30 minutes and the volume restored to 20ml with water. The zymosan was harvested by centrifugation at 500Xg for 5 minutes, washed twice by resuspension in PBS (10ml) and centrifugation. After the final separation, the zymosan was resuspended in 20ml PBS and stored as lml aliquots at -20°C. […]

IC50 [2] [µM] | SMILES | minimal effective dose [1] [mg/kg]
18 | c1ccc(OCCN2CCC(CCn3ccnc3)CC2)cc1 [Example 87, 4-[2-(Imidazol-1-yl)ethyl]-1-(2-phenoxyethyl)piperidine] | ≤ 100
31 | C(=Cc1ccccc1)CN1CCC(CCn2ccnc2)CC1 [Example 90, 1-Cinnamyl-4-[2-(imidazol-1-yl)ethyl]-piperidine] | ≤ 30
17 | O=C(CN1CCC(CCn2ccnc2)CC1)Nc1ccc(C(F)(F)F)cc1 [Example 91, 4-[2-(Imidazol-1-yl)ethyl]piperidino-4'-trifluoromethylacetanilide] | 30
56 | CC(c1ccc(Cl)cc1)N1CCC(CCn2ccnc2)CC1 (centres unmarked) [Example 93, 1-[1-(4-chlorophenyl)ethyl]-4-[2-(imidazol-1-yl)-ethyl]piperidine] | 30
62 | Cl.Cl.c1ccc(CCCN2CCC(CCn3ccnc3)CC2)cc1 [Example 98, 4-[2-(imidazol-1-yl)ethyl]-1-(3-phenylpropyl)piperidine dihydrochloride] | 30
54 | c1ccc(CCCN2CCC(Cn3ccnc3)CC2)cc1 [Example 102, 4-Imidazol-1-ylmethyl-1-(3-phenylpropyl)piperidine] | ≤ 100
28 | CC1CN(CCCc2ccccc2)CCC1CCn1ccnc1 (centres unmarked) [Example 103, 4-[2-(Imidazol-1-yl)ethyl]-3-methyl-1-(3-phenylpropyl)piperidine] | ≤ 30
14 | c1ccc(CCCN2CCC(CCn3ccnc3-c3ccccc3)CC2)cc1 [Example 109, 4-[2-(2-Phenylimidazol-1-yl)ethyl]-1-(3-phenylpropyl)piperidine] | 100
16 | Cc1nc2ccccc2n1CCC1CCN(CCCc2ccccc2)CC1 [Example 112, 2-Methyl-1-{2-[1-(3-phenylpropyl)piperidin-4-yl]ethyl}benzimidazole] | 100
33 | CC(Cn1ccnc1)C1CCN(CCCc2ccccc2)CC1 (centres unmarked) [Example 113, 4-[2-(Imidazol-1-yl)-1-methylethyl]-1-(3-phenylpropyl)piperidine] | 10
34 | c1ccc(CCCN2CCC(CCn3cnc4ccccc43)CC2)cc1 [Example 114, 1-{2-[1-(3-Phenylpropyl)piperidin-4-yl]-ethyl}benzimidazole] | 30
31 | Cc1nc(Cl)c(Cl)n1CCC1CCN(CCCc2ccccc2)CC1 [Example 115, 4-[2-(4,5-Dichloro-2-methylimidazol-1-yl)ethyl]-1-(3-phenylpropyl)piperidine] | 100
18 | Cc1ncn(CCC2CCN(CCCc3ccccc3)CC2)c1C [Example 116, 4-[2-(4,5-Dimethylimidazol-1-yl)ethyl]-1-(3-phenylpropyl)piperidine] | 30
21 | Cc1nccn1CCC1CCN(CCCc2ccccc2)CC1 [Example 117, 4-[2-(2-Methylimidazol-1-yl)ethyl]-1-(3-phenylpropyl)piperidine] | 100
52 | Cc1ccc(CCCN2CCC(CCn3ccnc3)CC2)cc1 [Example 122, 4-[2-(Imidazol-1-yl)ethyl]-1-[3-(4-methylphenyl)propyl]piperidine] | ≤ 30
35 | Clc1ccc(CCCN2CCC(CCn3ccnc3)CC2)cc1 [Example 123, 1-[3-(4-Chlorophenyl)propyl]-4-[2-(imidazol-1-yl)ethyl]piperidine] | ≤ 30
16 | CSc1ccc(CCCN2CCC(CCn3ccnc3)CC2)cc1 [Example 127, 4-[2-(Imidazol-1-yl)ethyl]-1-[3-(4-methylthiophenyl)propyl]piperidine] | 30
27 | c1ccc(CCN2CCC(CCn3ccnc3)CC2)cc1 [Example 128, 4-[2-(Imidazol-1-yl)ethyl]-1-phenethylpiperidine] | ≤ 30
16 | c1ccc(CCCCN2CCC(CCn3ccnc3)CC2)cc1 [Example 129, 4-[2-(Imidazol-1-yl)ethyl]-1-(4-phenylbutyl)piperidine] | 30
